The values that follow come from patent US9809562B2, “NAT10 modulators for treating or preventing laminopathies, aging and cancer” (CAMBRIDGE ENTERPRISE LIMITED, priority 2014, dated 2017).

The nature of data set [1]: Pharmacokinetics assay of Remodelin in mice. As to conditions: ICR mice; for half-life: read-out: half-life (T½) (converted). In kind it is in vivo. As for the experimental part: FIG. 17: Pharmacokinetics assay of Remodelin in mice. A) The pharmacokinetics of Remodelin was evaluated in ICR mice following IV at 1 mg/kg and PO at 5 mg/kg dose level. […] B) Details of the results obtained in the curves shown in A).

Data set [2] has as its system non-laminopathic Werner syndrome cells. Put plainly: Misshapen nuclei in Werner syndrome cells. In kind it is cell-based, human. An excerpt: FIG. 10: Remodelin rescues nuclear shape of aged MRC5 cells but not WS cells in a dose dependent manner. A) Misshapen nuclei observed by DAPI staining in MRC5 aged cells in culture, at population doubling 44 (PD44) were rescued by Remodelin. B) Quantification of misshapen nuclei after increasing concentrations of Remodelin (mean of three independent experiments±s.e.m.). C) DAPI staining of non-laminopathic Werner Syndrome cells (WS) showing no nuclear shape improvement upon Remodelin treatment. D) Cell Profiler quantification of misshapen nuclei (mean of three independent experiments±s.d. n>273). Scale bars: 50 μm.
U2OS and SaOS-2 osteosarcoma cells, HeLa cervical cancer cells, A431 melanoma cells, NCI-SNU5 gastric cancer cells, MRC-5 lung fibroblast cells and Werner syndrome patient-derived SV40 fibroblast cells were grown in Dulbecco's modified Eagle medium (DMEM, Sigma-Aldrich) supplemented with 10% fetal bovine serum (BioSera), 2 mM L-glutamine, 100 U per ml penicillin, 100 μg ml^−1 streptomycin. Normal skin primary fibroblasts GM03440 and Hutchinson Gilford Progeria Syndrome (HGPS) skin primary fibroblasts AG11498 and AG06297 were purchased from Coriell Cell Repositories and used between passage number 9-12 and 20-23 respectively. Cells were grown in DMEM supplemented as above. […] Cells were analysed 48 to 72 hours after transfection.

The next data set has as its system normal human fibroblasts. Put plainly: Nuclear shape of normal fibroblasts, with or without FTI. In kind it is cell-based. An excerpt:
FIG. 11: Remodelin prevents FTI induced nuclear shape defects in non-progeric cells. A) Analysis of Lamin A/C processing after Remodelin or FTI treatment, showing that Remodelin is not a FTI. B) Representative pictures of Lamin A/C IF staining after the indicated treatments. Arrows indicate FTI induced misshapen nuclei in normal fibroblasts. Scale bar: 50 μm. C) Quantification of misshapen nuclei with the indicated cell lines and inhibitor treatments (means of three independent experiments±s.e.m. n>178). D) Representative pictures of DAPI staining showing effects of FTI and Remodelin on nuclear shape of U2OS cells. Scale bars: 20 μm.
U2OS and SaOS-2 osteosarcoma cells, HeLa cervical cancer cells, A431 melanoma cells, NCI-SNU5 gastric cancer cells, MRC-5 lung fibroblast cells and Werner syndrome patient-derived SV40 fibroblast cells were grown in Dulbecco's modified Eagle medium (DMEM, Sigma-Aldrich) supplemented with 10% fetal bovine serum (BioSera), 2 mM L-glutamine, 100 U per ml penicillin, 100 μg ml^−1 streptomycin. […] Cells were analysed 48 to 72 hours after transfection.
The following KAT and KDAC inhibitors were used in the nuclear shape rescue screen, incubating cells with the molecules for 16 hours: trichostatin A (1 μM), sodium butyrate (5 mM), tubacin (10 μM), SAHA (5 μM), curcumin (10 μM), garcinol (50 μM), anacardic acid (1 μM), MB-3 (5 μM), 4-(4-chlorophenyl)-2-(2-cyclopentylidenehydrazinyl)thiazole (Compound 2) (50 μM), 4-(4-chlorophenyl)-2-(2-cyclopentylidene-1-(prop-2-yn-1-yl)hydrazinyl)thiazole (Compound 3) (50 μM) and cyclopentylidene-[4-(4-cyanophenyl)thiazol-2-yl)hydrazine (Compound 1) (Remodelin) (10 to 50 μM). […] Senescence was assessed after 8 days of Remodelin treatment when cells were at Population Doubling 12, and then after several weeks of Remodelin treatment, when cells reached Population Doubling 24 using the Senescence β-Galactosidase Staining Kit #9860 from Cell Signaling. […]

Data set [3] deals with HGPS cells (γH2AX, autophosphorylated ATM). Put plainly: DNA damage markers in HGPS cells (western blotting, IF). In kind it is cell-based, human. As to conditions: Remodelin 1 μM. The protocol:
The following KAT and KDAC inhibitors were used in the nuclear shape rescue screen, incubating cells with the molecules for 16 hours: trichostatin A (1 μM), sodium butyrate (5 mM), tubacin (10 μM), SAHA (5 μM), curcumin (10 μM), garcinol (50 μM), anacardic acid (1 μM), MB-3 (5 μM), 4-(4-chlorophenyl)-2-(2-cyclopentylidenehydrazinyl)thiazole (Compound 2) (50 μM), 4-(4-chlorophenyl)-2-(2-cyclopentylidene-1-(prop-2-yn-1-yl)hydrazinyl)thiazole (Compound 3) (50 μM) and cyclopentylidene-[4-(4-cyanophenyl)thiazol-2-yl)hydrazine (Compound 1) (Remodelin) (10 to 50 μM). For HGPS cellular fitness assays, Remodelin was incubated at 1 μM for 1 to 10 days, renewing the medium every 3 days. For long-term senescence assay, cells were kept and passaged in medium containing 1 μM Remodelin or DMSO only for 12 population doublings. Senescence was assessed after 8 days of Remodelin treatment when cells were at Population Doubling 12, and then after several weeks of Remodelin treatment, when cells reached Population Doubling 24 using the Senescence β-Galactosidase Staining Kit #9860 from Cell Signaling. […]
Total cell extracts were prepared by scraping cells in SDS lysis buffer (4% SDS, 20% glycerol, and 120 mM Tris-HCl, pH 6.8), boiling for 5 minutes at 95° C., followed by 10 strokes through a 25-gauge needle. […] Detection and quantification was performed with an imager (Odyssey; LI-COR Biosciences). […]

Where two headings read alike, the source gives them in different places.

Molecule `N#Cc1ccc(-c2csc(NN=C3CCCC3)n2)cc1` [Compound 1, 4-(4-Cyanophenyl)-2-(2-cyclopentylidenehydrazinyl)thiazole] came in with an Oral exposure (AUC0-∞) in data set [1] (PO 5 mg/kg) of 259 ng·h/mL. Further, in data set [1] (mouse, plasma, IV 1 mg/kg), the clearance stood at 139 mL/min/kg and the half-life is 54.9 min. In data set [1] (mouse, plasma, PO 5 mg/kg), the Tmax turned out to be 15 min and the half-life is 109 min. This molecule registered a bioavailability in data set [1] (mouse, plasma, PO 5 mg/kg vs IV 1 mg/kg) of 43.5%. Besides, in data set [1] (mouse, plasma, PO 5 mg/kg, read-out: maximum plasma concentration (Cmax)), the Cmax was determined as 409 ng/mL. For the same molecule, the “misshapen nuclei of Werner syndrome cells” value in data set [2] is given as “no detectable effect on misshapen nuclei”. Also, the “nuclear shape of normal cells” value in the data set with normal human fibroblasts (cells that do not express Progerin) was “did not induce nuclear shape defects in normal human fibroblasts”. Besides, the “FTI-induced nuclear shape defects” value with normal human fibroblasts (normal fibroblasts co-treated with FTI) is given as “prevented FTI-induced nuclear shape defects”. The “steady-state DNA damage markers (γH2AX, autophosphorylated ATM)” value in data set [3] was “decreased steady-state levels of γH2AX and autophosphorylated ATM”.
